Earlier results as cited in paper PMC10017685 (Nature Communications, 2023).

System: human erythrocytes
Design: method as in DBAASP
Settings: cited from earlier work
For KIAGKIAKIAGKIA [DBAASP_10129], the “Class (dedicated toxicity dataset used for toxicity classifier evaluation)” value (from here on “Class”) is given as 0.
For KIAGKIAKIAGKIAKIAGKIA [DBAASP_691], the “Class” value is listed as 0.
For KWCFRVCYRGICYRRCR [DBAASP_2229], the “Class” value is listed as 0.
In the case of RRGCFRVCYRGFCFQRCR [DBAASP_12233], the “Class” value is listed as 0.
For RRWRIVVIRVRR [DBAASP_1204], the “Class” value is given as 0.

Same assay, conditions: toxicity class label 1 or 0, meaning of the labels not given; DBAASP HC50 data, human erythrocytes; ref DBAASP; cited from earlier work
For KFLGTLVNLAKKIL [DBAASP_5014], the “Class” value is listed as 0.
In the case of KGIVGMLGKLF [DBAASP_5480], the “Class” value is listed as 0.
In the case of KIAKGALKALKIAKGALKAL [DBAASP_11229], the “Class” value is given as 0.
For KIAKGALKALKIAKVALKAL [DBAASP_11228], the “Class” value is given as 1.
In the case of KIAKIAGKIAKIAGKIA [DBAASP_14992], the “Class” value is given as 0.
In the case of KIAKIAGKIAKIAGKIAKIAGKIA [DBAASP_14995], the “Class” value is listed as 1.
In the case of KIAKVALKALKIAKGALKAL [DBAASP_9754], the “Class” value is listed as 0.
In the case of KIAKVALKALKIAKVALKAL [DBAASP_9753], the “Class” value is given as 0.
In the case of KIALKALKALKALGKALKAL [DBAASP_11232], the “Class” value is listed as 1.
In the case of KIFGAIWPLALGALKNLIK [DBAASP_7010], the “Class” value is listed as 1.
For KIGKALGKALKALGKALGKA [DBAASP_11230], the “Class” value is listed as 1.
In the case of KIKWILKYWKWS [DBAASP_10700], the “Class” value is listed as 0.
In the case of KIWFQNKKMKWKK [DBAASP_8802], the “Class” value is listed as 0.
In the case of KIWFQNRRMKWKK [DBAASP_8800], the “Class” value is given as 0.
For KKKKKKKKKGGGLLALLALLA [DBAASP_13727], the “Class” value is listed as 1.
In the case of KKKLAKLKLGAKLKLKGKLGA [DBAASP_13729], the “Class” value is listed as 0.
In the case of KKLFKKILKYL [DBAASP_197], the “Class” value is listed as 0.
For KKLFKKILKYLA [DBAASP_13463], the “Class” value is listed as 1.
For KKLIKKILKIL [DBAASP_5047], the “Class” value is listed as 0.
For KKVLKAAA [DBAASP_7361], the “Class” value is given as 0.
For KKVLKAAA [DBAASP_7362], the “Class” value is listed as 0.
For KKVLKAAA [DBAASP_7365], the “Class” value is given as 1.
In the case of KKYLLPIVGNLLKSLL [DBAASP_7638], the “Class” value is listed as 0.
In the case of KLALKLALKALKAALKLA [DBAASP_1030], the “Class” value is listed as 1.
In the case of KLFKKLFK [DBAASP_17848], the “Class” value is listed as 0.
In the case of KLGFENFLVKALKTVMHVPTSPLL [DBAASP_5711], the “Class” value is listed as 0.
For KLLGPLLKIAAKVGSNLL [DBAASP_4921], the “Class” value is listed as 0.
For KLLKFIKTLL [DBAASP_3151], the “Class” value is given as 0.
In the case of KLLKKAGKLLKKAGKLLKKAG [DBAASP_13728], the “Class” value is given as 0.
In the case of KLLKRIKKLL [DBAASP_3152], the “Class” value is given as 0.
For KLLKRIKTLL [DBAASP_3149], the “Class” value is given as 0.
In the case of KLLKVIKKLL [DBAASP_3153], the “Class” value is listed as 0.
For KQIKIWFQNKKMKWKK [DBAASP_8799], the “Class” value is given as 0.
In the case of KQKLAKLKAKLQKLKQKLAKL [DBAASP_10912], the “Class” value is given as 0.
For KRIVQRIKDFLR [DBAASP_146], the “Class” value is listed as 0.
For KRIVQRIKKWLR [DBAASP_6827], the “Class” value is given as 0.
For KRRVRWIIW [DBAASP_17712], the “Class” value is given as 0.
For KWAVRIIRKFIKGFIS [DBAASP_13726], the “Class” value is listed as 0.
In the case of KWCVYAYVKVKGVLVKYKKCW [DBAASP_2027], the “Class” value is given as 0.
In the case of KWFKIQLQIKKWKNKK [DBAASP_8806], the “Class” value is listed as 0.
In the case of KWKLFKKIFKRIVQRIKDFLRN [DBAASP_9530], the “Class” value is given as 0.
For KWKVFKKAEKMIRNIRNKIVK [DBAASP_11863], the “Class” value is given as 0.
In the case of KWKVFKKIEKMARNIRNKIVK [DBAASP_11864], the “Class” value is listed as 0.
In the case of KWKVFKKIEKMIRNIRNKIAK [DBAASP_11865], the “Class” value is listed as 0.
In the case of LALKSGGWLRLFGLKDKKH [DBAASP_6706], the “Class” value is given as 0.
In the case of LKKVLKAAA [DBAASP_7359], the “Class” value is listed as 0.
In the case of LLGMIPLAISAISALSKL [DBAASP_3893], the “Class” value is listed as 0.
In the case of LLGPVLGLVSNVLGGLL [DBAASP_12136], the “Class” value is listed as 0.
In the case of LLKKVLKAAA [DBAASP_7357], the “Class” value is given as 0.
In the case of LLKKVLKAAA [DBAASP_7358], the “Class” value is listed as 1.
For LPFFLLSLIPSAISAIKKI [DBAASP_8437], the “Class” value is given as 1.
For LWGALLGLGSTLLSKL [DBAASP_18167], the “Class” value is given as 1.
In the case of LWKIGKKIWRVLWNWR [DBAASP_17519], the “Class” value is listed as 1.
In the case of LWKIWKKIWRVGWNWR [DBAASP_17513], the “Class” value is given as 0.
In the case of LWKIWKKIWRVWKNWR [DBAASP_17516], the “Class” value is given as 1.
For LWKIWWKIWRVWKNWR [DBAASP_17523], the “Class” value is given as 1.
In the case of MPLSWFFPRTWGKR [DBAASP_9722], the “Class” value is listed as 0.
For NILNTIINLAKKIL [DBAASP_3562], the “Class” value is listed as 0.
For NLLGSLLKTGLKVGSNLL [DBAASP_5712], the “Class” value is listed as 0.
For PFKIDIHLGGY [DBAASP_7635], the “Class” value is listed as 0.
In the case of RAGLQFPVGRVHRLLRK [DBAASP_7651], the “Class” value is listed as 0.
In the case of RFCVYAYVRVRGVLVRYRRCF [DBAASP_13515], the “Class” value is given as 0.
In the case of RFRRLRKKTRKRLKKI [DBAASP_7143], the “Class” value is given as 0.
In the case of RIGVLLARLPKLFSLFKLMGKKV [DBAASP_4189], the “Class” value is listed as 0.
For RIRFPWPWRWPWWPRFRG [DBAASP_8616], the “Class” value is given as 0.
In the case of RIRIRWIIR [DBAASP_17706], the “Class” value is listed as 0.
For RIRWILRYWRWS [DBAASP_10701], the “Class” value is given as 0.
In the case of RIWFQNRRMRWRR [DBAASP_8801], the “Class” value is listed as 0.
For RPPQFTRAQWFAIQHISLN [DBAASP_6545], the “Class” value is listed as 1.
For RQIKIWFQNRRLKWKK [DBAASP_8797], the “Class” value is given as 0.
In the case of RQIKIWFQNRRMKWKK [DBAASP_6203], the “Class” value is listed as 0.
In the case of RQIRIWFQNRRMRWRR [DBAASP_8798], the “Class” value is given as 0.
For RQYMRQIEQALRYGYRISRR [DBAASP_14411], the “Class” value is listed as 0.
For RRWCVYAYVRVRGVRVYAYVCW [DBAASP_13506], the “Class” value is given as 0.
In the case of RRWYRRWYRRWY [DBAASP_17315], the “Class” value is given as 0.
For RWCRRYRVRVRGVLVYAYVCW [DBAASP_13505], the “Class” value is listed as 0.
For RWCVYAYVRVRGVLVRYRRCW [DBAASP_13517], the “Class” value is listed as 0.
For RWFKIQLQIRRWKNKK [DBAASP_8805], the “Class” value is listed as 0.
In the case of RWFKIQMQIRRWKNKK [DBAASP_8804], the “Class” value is given as 0.
In the case of RWFRIQLQIRRWRNRR [DBAASP_8807], the “Class” value is given as 0.
For RWGKWFKKATHVGKHVGKAALTAYL [DBAASP_997], the “Class” value is given as 0.
In the case of RWQWRWQWR [DBAASP_10099], the “Class” value is listed as 0.
In the case of RWRRFWRR [DBAASP_12823], the “Class” value is given as 0.
In the case of RWWLRRIW [DBAASP_10630], the “Class” value is given as 0.
In the case of SAVGRHGRRFGLRKHRKH [DBAASP_3348], the “Class” value is given as 0.
In the case of SAVGRHLRRFGLRKHRKH [DBAASP_7659], the “Class” value is given as 0.
In the case of SAVGRHLRRFLLRKHRKH [DBAASP_7660], the “Class” value is listed as 0.
For SAVLRHLRRFLLRKHRKH [DBAASP_7661], the “Class” value is given as 0.
For SAVWRHWRRFWLRKHRKH [DBAASP_9988], the “Class” value is given as 0.
In the case of SAVWRRWRRFWLRKRRKR [DBAASP_9990], the “Class” value is given as 0.
In the case of SAVWRWRRFWLRKRK [DBAASP_9989], the “Class” value is given as 0.
In the case of SFLTTVKKLVTNLAAL [DBAASP_13626], the “Class” value is listed as 0.
In the case of SILPTIVSFLSKVF [DBAASP_13348], the “Class” value is listed as 1.
For SKVGRHGRRFGHRAHRKL [DBAASP_7662], the “Class” value is listed as 0.
In the case of SKVGRHLRRFGHRAHRKL [DBAASP_7663], the “Class” value is given as 0.
In the case of SKVGRHLRRFLHRAHRKL [DBAASP_7664], the “Class” value is given as 0.
For SKVLRHLRRFLHRAHRKL [DBAASP_7665], the “Class” value is given as 0.
